Measurements taken from patent publication US12187723B2 (BRISTOL-MYERS SQUIBB COMPANY, priority 2019, dated 2025).

Assays:
human TLR7 = biological target: T1, human TLR7 (Homo sapiens, UniProt Q9NYK1); test: TLR7 inhibition reporter assay (HEK-Blue SEAP); type: cell-based; details: HEK-Blue cells overexpressing human TLR7, gardiquimod 7.5 μM, 22 hour incubation
T1 construct: host or cells: HEK-Blue cells
T1 sequence (Q9NYK1 27-1049): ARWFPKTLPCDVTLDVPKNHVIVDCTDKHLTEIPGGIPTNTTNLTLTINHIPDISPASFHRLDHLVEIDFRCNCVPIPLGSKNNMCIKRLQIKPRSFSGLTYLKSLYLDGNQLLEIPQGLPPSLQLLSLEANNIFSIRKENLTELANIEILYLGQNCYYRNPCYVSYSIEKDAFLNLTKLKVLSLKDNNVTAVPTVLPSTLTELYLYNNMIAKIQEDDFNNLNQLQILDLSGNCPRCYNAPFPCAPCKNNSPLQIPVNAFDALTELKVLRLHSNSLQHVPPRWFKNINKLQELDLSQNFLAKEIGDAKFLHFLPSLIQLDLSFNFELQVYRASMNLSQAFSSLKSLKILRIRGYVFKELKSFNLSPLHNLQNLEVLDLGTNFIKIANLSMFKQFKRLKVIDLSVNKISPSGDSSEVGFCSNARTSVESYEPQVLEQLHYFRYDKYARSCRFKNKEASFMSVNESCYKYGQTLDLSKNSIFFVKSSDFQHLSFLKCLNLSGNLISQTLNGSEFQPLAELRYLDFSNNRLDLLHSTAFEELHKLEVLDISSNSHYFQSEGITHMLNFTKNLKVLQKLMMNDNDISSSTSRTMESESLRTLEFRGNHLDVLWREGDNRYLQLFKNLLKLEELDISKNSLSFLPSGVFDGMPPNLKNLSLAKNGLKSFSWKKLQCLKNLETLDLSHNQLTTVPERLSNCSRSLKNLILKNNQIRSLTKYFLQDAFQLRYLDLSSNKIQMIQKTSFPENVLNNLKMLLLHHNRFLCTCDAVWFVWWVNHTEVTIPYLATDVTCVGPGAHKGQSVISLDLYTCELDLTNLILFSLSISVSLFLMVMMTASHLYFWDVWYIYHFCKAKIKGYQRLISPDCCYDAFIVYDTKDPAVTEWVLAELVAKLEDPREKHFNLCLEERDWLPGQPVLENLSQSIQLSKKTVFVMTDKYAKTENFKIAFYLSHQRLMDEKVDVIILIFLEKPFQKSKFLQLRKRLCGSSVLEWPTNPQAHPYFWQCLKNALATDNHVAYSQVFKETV
Outline: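 Dose-response testing from 0.05 nM to 50 μM final was done on reporter cells for 22 hours at 37° C. Secreted SEAP was then detected, and inhibition was calculated as percent reduction of the agonist-plus-DMSO signal compared with wells given a known inhibitor.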

human TLR9 = biological target: T2, human TLR9 (Homo sapiens, UniProt Q9NR96); test: TLR9 inhibition reporter assay (HEK-Blue SEAP); type: cell-based; details: HEK-Blue cells overexpressing human TLR9, ODN2006 5 nM, 22 hour incubation
T2 construct: host or cells: HEK-Blue cells
T2 sequence (Q9NR96 26-1032): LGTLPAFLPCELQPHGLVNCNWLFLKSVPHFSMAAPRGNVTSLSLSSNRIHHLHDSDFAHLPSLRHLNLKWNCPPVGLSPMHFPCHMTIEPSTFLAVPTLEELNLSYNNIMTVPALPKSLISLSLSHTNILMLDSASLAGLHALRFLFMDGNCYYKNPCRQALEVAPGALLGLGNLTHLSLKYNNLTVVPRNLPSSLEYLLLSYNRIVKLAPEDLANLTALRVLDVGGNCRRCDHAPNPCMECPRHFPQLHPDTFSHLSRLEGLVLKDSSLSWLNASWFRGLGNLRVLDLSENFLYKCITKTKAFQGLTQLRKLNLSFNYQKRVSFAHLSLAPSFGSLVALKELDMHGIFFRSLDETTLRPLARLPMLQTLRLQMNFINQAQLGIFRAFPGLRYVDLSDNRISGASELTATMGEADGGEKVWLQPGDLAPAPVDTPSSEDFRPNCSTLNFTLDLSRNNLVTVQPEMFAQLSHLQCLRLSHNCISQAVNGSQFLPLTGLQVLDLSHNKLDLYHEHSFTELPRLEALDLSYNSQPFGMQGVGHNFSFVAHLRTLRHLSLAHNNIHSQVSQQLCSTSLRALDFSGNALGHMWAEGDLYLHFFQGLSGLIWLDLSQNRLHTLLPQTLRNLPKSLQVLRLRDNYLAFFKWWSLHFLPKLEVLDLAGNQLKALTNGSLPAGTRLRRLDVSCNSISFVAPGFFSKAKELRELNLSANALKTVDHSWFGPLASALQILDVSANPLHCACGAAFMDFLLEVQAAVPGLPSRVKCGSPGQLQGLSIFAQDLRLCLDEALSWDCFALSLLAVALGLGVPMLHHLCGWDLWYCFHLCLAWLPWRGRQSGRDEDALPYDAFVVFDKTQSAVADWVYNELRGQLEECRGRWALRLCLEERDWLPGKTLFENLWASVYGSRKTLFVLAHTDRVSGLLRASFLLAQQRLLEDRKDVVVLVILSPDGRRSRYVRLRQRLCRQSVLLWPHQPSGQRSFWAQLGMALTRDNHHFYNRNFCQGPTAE
Outline: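 Screening used HEK-Blue cells overexpressing one human TLR (7, 8 or 9) and an IFN-β minimal promoter–NF-κB/AP-1 SEAP construct. Stimulation lasted 22 h at 37 °C with receptor-specific agonist: gardiquimod, R848 or ODN2006 at 7.5 μM, 15.9 μM and 5 nM.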

IC50 (human TLR7) [nM] | IC50 (human TLR9) [nM] | Compound
182 | > 50000 | Cc1c(-c2cc3[nH]c(=O)n([C@@H]4CCCN(C5COC5)C4)c3cc2C(C)C)cn2ncnc2c1C [Example 146, (R)-5-(7,8-dimethyl-[1,2,4]triazolo[1,5-a]pyridin-6-yl)-6-isopropyl-1-(1-(oxetan-3-yl)piperidin-3-yl)-1,3-dihydro-2H-benzo[d]imidazol-2-one]
66.9 | > 50000 | Cc1c(-c2cc3[nH]c(=O)n([C@@H]4CCCN(C)C4)c3cc2C(C)C)cn2ncnc2c1C [Example 147, (R)-5-(7,8-dimethyl-[1,2,4]triazolo[1,5-a]pyridin-6-yl)-6-isopropyl-1-(1-methylpiperidin-3-yl)-1,3-dihydro-2H-benzo[d]imidazol-2-one]
0.49 | 9610 | CCC(CC)CN1CCC[C@@H](n2c(=O)[nH]c3cc(-c4cc(OC)c5ncnn5c4)c(C(C)C)cc32)C1 [Example 148, (R)-1-(1-(2-ethylbutyl)piperidin-3-yl)-6-isopropyl-5-(8-methoxy-[1,2,4]triazolo[1,5-a]pyridin-6-yl)-1,3-dihydro-2H-benzo[d]imidazol-2-one]
3.97 | 15700 | Cc1c(-c2cc3[nH]c(=O)n([C@@H]4CCCN(CC5CCOCC5)C4)c3cc2C(C)C)cn2ncnc2c1C [Example 149, (R)-5-(7,8-dimethyl-[1,2,4]triazolo[1,5-a]pyridin-6-yl)-6-isopropyl-1-(1-((tetrahydro-2H-pyran-4-yl)methyl)piperidin-3-yl)-1,3-dihydro-2H-benzo[d]imidazol-2-one]
5.52 | 11900 | CCCN1CCC[C@@H](n2c(=O)[nH]c3cc(-c4cn5ncnc5c(C)c4C)c(C(C)C)cc32)C1 [Example 150, (R)-5-(7,8-dimethyl-[1,2,4]triazolo[1,5-a]pyridin-6-yl)-6-isopropyl-1-(1-propylpiperidin-3-yl)-1,3-dihydro-2H-benzo[d]imidazol-2-one]
11 | 17700 | CCC(CC)CN1CCC[C@@H](n2c(=O)[nH]c3cc(-c4cn5ncnc5c(C)c4C)c(C(C)C)cc32)C1 [Example 151, (R)-5-(7,8-dimethyl-[1,2,4]triazolo[1,5-a]pyridin-6-yl)-1-(1-(2-ethylbutyl)piperidin-3-yl)-6-isopropyl-1,3-dihydro-2H-benzo[d]imidazol-2-one]
0.58 | 13100 | COc1cc(-c2cc3[nH]c(=O)n([C@@H]4CCCN(CC(C)(C)C)C4)c3cc2C(C)C)cn2ncnc12 [Example 153, (R)-6-isopropyl-5-(8-methoxy-[1,2,4]triazolo[1,5-a]pyridin-6-yl)-1-(1-neopentylpiperidin-3-yl)-1,3-dihydro-2H-benzo[d]imidazol-2-one]
2.12 | 23500 | COc1cc(-c2cc3[nH]c(=O)n(C4CCN(C)CC4)c3cc2C(C)C)cn2ncnc12 [Example 154, 6-isopropyl-5-(8-methoxy-[1,2,4]triazolo[1,5-a]pyridin-6-yl)-1-(1-methylpiperidin-4-yl)-1,3-dihydro-2H-benzo[d]imidazol-2-one]
6.33 | 11900 | CCCN1CCC(n2c(=O)[nH]c3cc(-c4cc(OC)c5ncnn5c4)c(C(C)C)cc32)CC1 [Example 155, 6-isopropyl-5-(8-methoxy-[1,2,4]triazolo[1,5-a]pyridin-6-yl)-1-(1-propylpiperidin-4-yl)-1,3-dihydro-2H-benzo[d]imidazol-2-one]
7.49 | 15300 | COc1cc(-c2cc3[nH]c(=O)n(C4CCN(C(C)C)CC4)c3cc2C(C)C)cn2ncnc12 [Example 163, 6-isopropyl-1-(1-isopropylpiperidin-4-yl)-5-(8-methoxy-[1,2,4]triazolo[1,5-a]pyridin-6-yl)-1,3-dihydro-2H-benzo[d]imidazol-2-one]

Compound | IC50 (human TLR7) [nM] | IC50 (human TLR9) [nM]
COc1cc(-c2cc3[nH]c(=O)n(C4CCN(C5CCC5)CC4)c3cc2C(C)C)cn2ncnc12 [Example 156, 1-(1-cyclobutylpiperidin-4-yl)-6-isopropyl-5-(8-methoxy-[1,2,4]triazolo[1,5-a]pyridin-6-yl)-1,3-dihydro-2H-benzo[d]imidazol-2-one] | 17.9 | 23800
COc1cc(-c2cc3[nH]c(=O)n(C4CCN(C5COC5)CC4)c3cc2C(C)C)cn2ncnc12 [Example 157, 6-isopropyl-5-(8-methoxy-[1,2,4]triazolo[1,5-a]pyridin-6-yl)-1-(1-(oxetan-3-yl)piperidin-4-yl)-1,3-dihydro-2H-benzo[d]imidazol-2-one] | 76.8 | > 50000
COc1cc(-c2cc3[nH]c(=O)n(C4CCN(C5CCOCC5)CC4)c3cc2C(C)C)cn2ncnc12 [Example 158, 6-isopropyl-5-(8-methoxy-[1,2,4]triazolo[1,5-a]pyridin-6-yl)-1-(1-(tetrahydro-2H-pyran-4-yl)piperidin-4-yl)-1,3-dihydro-2H-benzo[d]imidazol-2-one] | 11.2 | 21400
COc1cc(-c2cc3[nH]c(=O)n(C4CCN(CC5CCOCC5)CC4)c3cc2C(C)C)cn2ncnc12 [Example 159, 6-isopropyl-5-(8-methoxy-[1,2,4]triazolo[1,5-a]pyridin-6-yl)-1-(1-((tetrahydro-2H-pyran-4-yl)methyl)piperidin-4-yl)-1,3-dihydro-2H-benzo[d]imidazol-2-one] | 7.23 | 7250
COc1cc(-c2cc3[nH]c(=O)n(C4CCN(CC5CCOC5)CC4)c3cc2C(C)C)cn2ncnc12 (stereo not shown) [Example 160, 6-isopropyl-5-(8-methoxy-[1,2,4]triazolo[1,5-a]pyridin-6-yl)-1-(1-((tetrahydrofuran-3-yl)methyl)piperidin-4-yl)-1,3-dihydro-2H-benzo[d]imidazol-2-one] | 8.66 | 14300
COc1cc(-c2cc3[nH]c(=O)n(C4CCN(CC5CC5)CC4)c3cc2C(C)C)cn2ncnc12 [Example 161, 1-(1-(cyclopropylmethyl)piperidin-4-yl)-6-isopropyl-5-(8-methoxy-[1,2,4]triazolo[1,5-a]pyridin-6-yl)-1,3-dihydro-2H-benzo[d]imidazol-2-one] | 7.28 | 11300
COc1cc(-c2cc3[nH]c(=O)n(C4CCN(C5CCOC5)CC4)c3cc2C(C)C)cn2ncnc12 (stereo not shown) [Example 162, 6-isopropyl-5-(8-methoxy-[1,2,4]triazolo[1,5-a]pyridin-6-yl)-1-(1-(tetrahydrofuran-3-yl)piperidin-4-yl)-1,3-dihydro-2H-benzo[d]imidazol-2-one] | 73 | > 50000
